Results from patent publication US10173968B2, “Bishydrazone-based antifungal agents” (University of Kentucky Research Foundation, priority 2016, dated 2019).
Where two headings read alike, the source gives them in different places.

Tests used:
C. albicans ATCC 10231 [1] = experiment: Intracellular ROS production, DCFH-DA fluorescence assay; type: cell-based, Candida albicans; details: positive control at 1 mM, 1 h at 35° C.
From the text: We used the 2′,7′-dichlorodihydrofluorescein diacetate (DCFH-DA) dye as a probe to measure the production of ROS in yeast cells upon treatment with our compounds. DCFH-DA can easily cross the cell membranes and be hydrolyzed by cellular esterases to the non-fluorescent 2′,7′-dichlorodihydrofluorescein (DCFH), which can further be oxidized to the highly fluorescent 2′,7′-dichlorofluorescein (DCF) by the intracellular ROS. Five mL of RPMI 1640 medium were inoculated using a single colony of C. albicans ATCC 10231 (strain A) in a Falcon tube and grown overnight at 35° C. at 200 rpm. The overnight culture was diluted by adding 200 μL of yeast cells to 800 μL of the same medium. […] H2O2 at 1 mM was also used as a positive control. Cells were centrifuged and washed twice with PBS buffer (pH 7.2). Cells were resuspended in the same buffer and incubated with DCFH-DA (20 μg/mL) for 30 min in the dark. Afterwards, cells were centrifuged and washed with PBS buffer to remove excess DCFH-DA. Glass slides with 10-15 μL of each mixture were prepared and observed in bright field and fluorescence modes (FITC filter set, excitation and emission wavelengths of 488 and 512 nm, respectively) using a Zeiss Axovert 200M fluorescence microscope (FIG. 3).

[2] = Mammalian cell cytotoxicity, resazurin; type: cell-based; details: human
Experimental: Another important aspect to consider during the development of antimicrobial agents is their potential toxicity towards mammalian cells. Having established the potent antimicrobial activities of the bis(N-amidino)hydrazones and N-amidino-N′-aryl-bishydrazones against bacteria and fungi, the toxicity profile of these compounds was determined against two mammalian cell lines (A549 and BEAS-2B; FIGS. 4A-B). […]. Cytotoxicity assays were performed as previously described. The human lung carcinoma epithelial cells A549 and the normal human bronchial epithelial cells BEAS-2B were grown in F12-K and DMEM medium containing 10% fetal bovine serum (FBS) and 1% antibiotics, respectively. The confluent cells were trypsinized with 0.05%-trypsin-0.53 mM EDTA, centrifuged (1,200 rpm) and resuspended in fresh medium (F12-K or DMEM). The cells were seeded into 96-well microtiter plates at a density of 3,000 cells/well and were grown overnight. […] Triton X-100® (0.5%, v/v) gave complete loss of cell viability and was used as the positive control. The percent cell survival was calculated as: (test value/control value)×100, where control value represents cells+resazurin−drug, and test value represents cells+resazurin+drug.

[3] = test system: all bacterial strains tested; experiment: Antibacterial MIC, summary over the panel; type: cell-based
Experimental: MIC values were determined against a variety of Gram-positive (strains A-D) and Gram-negative (E-J) bacterial and mycobacterial (K) strains using the double-dilution method, as previously published. Preliminary screening was performed using 500 μM of each compound.

VRE (strain D) = type: cell-based, enterococcus
Experimental: (§1) The bacteria were grown in MH broth at 37° C. for these experiments. […] The resulting cultures were diluted 1:1000 and grown until the culture reached ˜300,000 cfu/mL. That culture was then further diluted 1:1000 and used to determine the next round of MIC values.

[4] = test system: P. aeruginosa ATCC 27853 (strain I); type: cell-based
Experimental: as §1

MRSA (strain C) = type: cell-based, Staphylococcus aureus
Experimental: as §1

[5] = test system: L. monocytogenes ATCC 19115 (strain B); type: cell-based, Listeria monocytogenes
Experimental: as §1

[6] = test system: L. monocytogenes ATCC 19115; experiment: Antibacterial MIC, double-dilution method; type: cell-based; details: Listeria monocytogenes, ATCC19115, strain B, Gram-positive, read-out: MIC
In short: (§2)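 Step one: single-point test of each compound at 500 μM. Step two: MIC determination across doubling dilutions.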

S. enterica ATCC 14028 = experiment: Antibacterial MIC, double-dilution method; type: cell-based; details: Salmonella enterica, ATCC14028, strain J, Gram-negative, read-out: MIC
In short: as §2

P. aeruginosa ATCC 27853 = experiment: Antibacterial MIC, double-dilution method; type: cell-based; details: Pseudomonas aeruginosa, ATCC27853, strain I, Gram-negative, read-out: MIC
In short: as §2

E. coli MC1061 = experiment: Antibacterial MIC, double-dilution method; type: cell-based; details: Escherichia coli, strain G, Gram-negative, read-out: MIC
In short: as §2

VRE = experiment: Antibacterial MIC, double-dilution method; type: cell-based; details: Enterococcus, strain D, Gram-positive, read-out: MIC
In short: as §2

M. smegmatis MC2-155 = experiment: Antibacterial MIC, double-dilution method; type: cell-based; details: Mycolicibacterium smegmatis, MC2155, strain K, mycobacterial, read-out: MIC
In short: as §2

B. subtilis 168 = experiment: Antibacterial MIC, double-dilution method; type: cell-based; details: Bacillus subtilis, strain A, Gram-positive
In short: as §2

E. cloacae ATCC 13047 = experiment: Antibacterial MIC, double-dilution method; type: cell-based; details: Enterobacter cloacae, ATCC13047, strain F, Gram-negative, read-out: MIC
In short: as §2

K. pneumoniae ATCC 27736 = experiment: Antibacterial MIC, double-dilution method; type: cell-based; details: Klebsiella pneumoniae, ATCC27736, strain H, Gram-negative, read-out: MIC
In short: as §2

A. baumannii ATCC 19606 = experiment: Antibacterial MIC, double-dilution method; type: cell-based; details: Acinetobacter baumannii, ATCC19606, strain E, Gram-negative, read-out: MIC
In short: as §2

MRSA = experiment: Antibacterial MIC, double-dilution method; type: cell-based; details: Staphylococcus aureus, strain C, Gram-positive, read-out: MIC
In short: as §2

C. albicans ATCC 90819 = experiment: Antifungal MIC, CLSI M27-A3 microbroth dilution; type: cell-based, Candida albicans; details: Candida albicans, ATCC90819, C. albicans ATCC 90819, resistant to FLC, ITC, and VOR, read-out: MIC
Experimental: (§3) In vitro MIC testing was performed according to the CLSI M27-A3 standard microbroth dilution methodology for the susceptibility testing of yeasts with minor modifications.

C. albicans ATCC 2310 = experiment: Antifungal MIC, CLSI M27-A3 microbroth dilution; type: cell-based, Candida albicans; details: Candida albicans, ATCC2310, C. albicans ATCC 2310, susceptible to FLC, ITC, and VOR, read-out: MIC
Experimental: as §3

C. albicans ATCC 10231 [7] = experiment: Antifungal MIC, CLSI M27-A3 microbroth dilution; type: cell-based, Candida albicans; details: Candida albicans, ATCC10231, C. albicans ATCC 10231, resistant to FLC, ITC, and VOR, read-out: MIC
Experimental: as §3

C. albicans ATCC 1003 = experiment: Antifungal MIC, CLSI M27-A3 microbroth dilution; type: cell-based, Candida albicans; details: Candida albicans, ATCC1003, read-out: MIC
Experimental: as §3

C. albicans ATCC 1237 = experiment: Antifungal MIC, CLSI M27-A3 microbroth dilution; type: cell-based, Candida albicans; details: Candida albicans, ATCC1237, C. albicans ATCC 1237, resistant to FLC, ITC, and VOR, read-out: MIC
Experimental: as §3

C. albicans ATCC 64124 = experiment: Antifungal MIC, CLSI M27-A3 microbroth dilution; type: cell-based, Candida albicans; details: Candida albicans, ATCC64124, C. albicans ATCC 64124, resistant to FLC, ITC, and VOR, read-out: MIC
Experimental: as §3

C. albicans ATCC 2876 = experiment: Antifungal MIC, CLSI M27-A3 microbroth dilution; type: cell-based, Candida albicans; details: Candida albicans, ATCC2876, C. albicans ATCC 2876, susceptible to FLC, ITC, and VOR, read-out: MIC
Experimental: as §3

[8] = after 15 serial passages at sub-inhibitory concentrations

OO [Compound H2O2, H2O2, reference compound]
intracellular ROS production (C. albicans ATCC 10231 [1]): induced ROS production

Cl.N=C(N)N/N=C/c1ccc(-c2ccc(/C=N/Nc3ccc(F)cc3)cc2)cc1 [Compound 7Ac, (E)-2-((4′-((E)-(2-(4-Fluorophenyl)hydrazono)methyl)-[1,1′-biphenyl]-4-yl)methylene)hydrazine-1-carboximidamide monohydrochloride]
melting point: > 380 °C
IC50 at 24 h ([2]; BEAS-2B): 7.8 to 15.6 µg/mL
IC50 at 24 h ([2]; A549, 24 h): 7.8 to 15.6 µg/mL
MIC ([3]; read-out: antibacterial MIC values): 0.4 to 3.3 µg/mL

NCC[C@H](O)C(=O)N[C@@H]1C[C@H](N)[C@@H](O[C@H]2O[C@H](CN)[C@@H](O)[C@H](O)[C@H]2O)[C@H](O)[C@H]1O[C@H]1O[C@H](CO)[C@@H](O)[C@H](N)[C@H]1O [AMK, amikacin, reference compound]
development of resistance (passages after which resistance developed) (VRE (strain D); up to 15 passages): 3 passages
development of resistance (passages after which resistance developed) ([4]; up to 15 passages): 5 passages
development of resistance (passages after which resistance developed) (MRSA (strain C); up to 15 passages): 12 passages
development of resistance (passages after which resistance developed) ([5]; up to 15 passages): 15 passages
MIC ([6]; range 0.5 to 500 μM): 3.9 µM
MIC (S. enterica ATCC 14028; converted from μM): 3 to 6.1 µg/mL
MIC (S. enterica ATCC 14028; range 0.5 to 500 μM): 3.9 to 7.8 µM
MIC (P. aeruginosa ATCC 27853; converted from μM): 48.9 µg/mL
MIC (P. aeruginosa ATCC 27853; range 0.5 to 500 μM): 62.5 µM
MIC (E. coli MC1061; converted from μM): 24.5 µg/mL
MIC (E. coli MC1061; range 0.5 to 500 μM): 31.3 µM
MIC (VRE; converted from μM): 97.7 µg/mL
MIC (VRE; range 0.5 to 500 μM): 125 µM
MIC (M. smegmatis MC2-155; converted from μM): 12.2 µg/mL
MIC (M. smegmatis MC2-155; range 0.5 to 500 μM): 15.6 µM
MIC (B. subtilis 168; converted from μM): 3 to 12.2 µg/mL
MIC (B. subtilis 168; range 0.5 to 500 μM): 3.9 to 15.6 µM
MIC (E. cloacae ATCC 13047; converted from μM): 48.9 µg/mL
MIC (E. cloacae ATCC 13047; range 0.5 to 500 μM): 62.5 µM
MIC ([3]; read-out: MIC, span over all bacterial strains tested): 3.9 to 125 µM

C/C(=N\NC(=N)N)c1ccc(CCc2ccc(/C(C)=N/NC(=N)N)cc2)cc1.Cl.Cl [Compound 4D, (2E,2′E)-2,2′-((Ethane-1,2-diylbis(4,1-phenylene))bis(ethan-1-yl-1-ylidene))bis(hydrazine-1-carboximidamide) dihydrochloride]
increase in relative MIC values (VRE (strain D); [8]): 16 fold
increase in relative MIC values [4, 8]: 4 fold
increase in relative MIC values (MRSA (strain C); [8]): 16 fold
increase in relative MIC values [5, 8]: 8 fold
MIC (K. pneumoniae ATCC 27736; converted from μM): > 226 µg/mL
MIC (K. pneumoniae ATCC 27736; range 0.5 to 500 μM): > 500 µM
MIC ([6]; converted from μM): 0.5 µg/mL
MIC ([6]; range 0.5 to 500 μM): 1 µM
MIC (S. enterica ATCC 14028; converted from μM): > 226 µg/mL
MIC (S. enterica ATCC 14028; range 0.5 to 500 μM): > 500 µM
MIC (P. aeruginosa ATCC 27853; converted from μM): > 226 µg/mL
MIC (P. aeruginosa ATCC 27853; range 0.5 to 500 μM): > 500 µM
MIC (E. coli MC1061; converted from μM): > 226 µg/mL
MIC (E. coli MC1061; range 0.5 to 500 μM): > 500 µM
MIC (VRE; converted from μM): 0.5 µg/mL
MIC (VRE; range 0.5 to 500 μM): 1 µM
MIC (M. smegmatis MC2-155; converted from μM): 0.5 µg/mL
MIC (M. smegmatis MC2-155; range 0.5 to 500 μM): 1 µM
MIC (B. subtilis 168; converted from μM): > 226 µg/mL
MIC (B. subtilis 168; range 0.5 to 500 μM): > 500 µM
MIC (A. baumannii ATCC 19606; converted from μM): > 226 µg/mL
MIC (A. baumannii ATCC 19606; range 0.5 to 500 μM): > 500 µM
MIC (MRSA; converted from μM): 0.5 to 0.9 µg/mL
MIC (MRSA; range 0.5 to 500 μM): 1 to 2 µM
MIC (E. cloacae ATCC 13047; converted from μM): > 226 µg/mL
MIC (E. cloacae ATCC 13047; range 0.5 to 500 μM): > 500 µM
MIC (C. albicans ATCC 90819; converted from μg/mL): 17.3 µM
MIC (C. albicans ATCC 90819): 7.8 µg/mL
MIC (C. albicans ATCC 2310; converted from μg/mL): 69.3 µM
MIC (C. albicans ATCC 2310): 31.3 µg/mL
MIC (C. albicans ATCC 10231 [7]; converted from μg/mL): 17.3 µM
MIC (C. albicans ATCC 10231 [7]): 7.8 µg/mL
MIC (C. albicans ATCC 1003; C. albicans ATCC 1003, converted from μg/mL): 34.6 µM
MIC (C. albicans ATCC 1003): 15.6 µg/mL
MIC (C. albicans ATCC 1237; converted from μg/mL): 34.6 µM
MIC (C. albicans ATCC 1237): 15.6 µg/mL
MIC (C. albicans ATCC 64124; converted from μg/mL): > 69.3 µM
MIC (C. albicans ATCC 64124): > 31.3 µg/mL
MIC (C. albicans ATCC 2876; converted from μg/mL): 8.6 µM
MIC (C. albicans ATCC 2876): 3.9 µg/mL
